Publication PMC8228121, “Super-Cationic Peptide Dendrimers—Synthesis and Evaluation as Antimicrobial Agents” (Antibiotics, 2021)
Converted amounts (≈) assume the structure as drawn. Bridge positions count the residues as written; N and C are the ends. Side chains are listed from the residue outwards. Peptide text beside a SMILES is read from it. I, II: the chains in the order shown. * marks the point of attachment. Lauroyl = CCCCCCCCCCCC(=O)*; Hexanoyl = CCCCCC(=O)*

Columns and labels:
[1] = system: MRSA (methicillin-resistant S. aureus) isolates; experiment: microbe, parasite or virus in culture; format: cell-based
Protocol: (§1) Clinical isolates of CRE, MRSA and VRE were obtained from Lancet Laboratories, Durban, South Africa, with approval BE394/15 from the Biomedical Research Ethical Committee of the University of KwaZulu-Natal. Five reference strains of bacteria, namely Escherichia coli ATCC 25922, Pseudomonas aeruginosa ATCC 27853, Enterococcus faecium ATCC 35667, Staphylococcus aureus ATCC 29213 and Bacillus subtilis ATCC 6051 were supplied by the American Type Culture Collection (ATCC).
(§2) MIC values were determined by the broth microdilution method and the significance of the values obtained was interpreted following the guidelines of the Clinical and Laboratory Standards for Antimicrobial Susceptibility Testing.. The effect of human serum on the antimicrobial effect of the molecules tested was determined in a similar way to the MIC method used above in a solution of 50% human serum plus Mueller–Hinton broth.

S. aureus ATCC 29213 = experiment: microbe, parasite or virus in culture; format: cell-based, Staphylococcus aureus; conditions: ATCC 29213
Protocol: as §1, §2

in vitro = conditions: human
Protocol: (§3) Cell viability was evaluated using the colorimetric MTT assay [21]. Human hepatocarcinoma (HepG2) cells and human embryonic kidney 293 (HEK-293) cells used in the drug toxicity assays were obtained from Cellonex (Johannesburg, South Africa). Viable HepG2 and HEK293 cells (20,000 cells/well) were seeded into a 96-well microtiter plate (200 µL) and allowed to attach overnight. The cells were exposed to varying concentrations of the peptides for 24 h. After removal of the treatment medium, 20 µL of MTT salt solution (5 mg/mL in 0.1M phosphate buffer saline (PBS)) and 100 µL of complete cell culture medium (CCM) were added to each well. After a 4 h (37 °C) incubation, the MTT salt solution was discarded and 100 μL of dimethyl sulphoxide (DMSO) were added to each well (1 h, 37 °C). The optical density of the solubilized formazan product was measured at 570 nm (reference λ of 690 nm) using a Bio-tek μQuant spectrophotometer (Winooski, VT, USA). […] GraphPad Prism (V5) (La Jolla, CA, USA) was used to obtain the half maximum inhibitory concentration (IC50) for each compound.

MTT cytotoxicity assay = format: cell-based, human; conditions: human, HepG2 cells, HepG2, 24 h exposure
Protocol: as §3

P. aeruginosa ATCC 27853 = experiment: microbe, parasite or virus in culture; format: cell-based, Pseudomonas aeruginosa; conditions: ATCC 27853
Protocol: as §1, §2

E. coli ATCC 25822 = experiment: microbe, parasite or virus in culture; format: cell-based, Escherichia coli; conditions: ATCC 25822
Protocol: as §1, §2

E. faecium ATCC 35667 = experiment: microbe, parasite or virus in culture; format: cell-based, Enterococcus faecium; conditions: ATCC 35667
Protocol: as §1, §2

B. subtilis ATCC 6051 = experiment: microbe, parasite or virus in culture; format: cell-based, Bacillus subtilis; conditions: ATCC 6051
Protocol: as §1, §2

VRE, E. faecium isolates = experiment: microbe, parasite or virus in culture; format: cell-based
Protocol: as §1, §2

[2] = methicillin-resistant ) isolates

CC1(C)S[C@@H]2[C@H](NC(=O)[C@H](N)c3ccccc3)C(=O)N2[C@H]1C(=O)O [Amp, reference compound]
MIC ([1]; MRSA isolate 440260): >512 µg/mL
MIC ([1]; MRSA isolate B11970): >512 µg/mL
MIC ([1]; MRSA isolate B13178): >512 µg/mL
MIC ([1]; MRSA isolate P10747): >512 µg/mL
MIC ([1]; MRSA isolate P10781): >512 µg/mL
MIC ([1]; MRSA isolate P11520): 512 µg/mL (≈ 1470 µM)
MIC ([1]; MRSA isolate S18155): >512 µg/mL
MIC ([1]; MRSA isolate S18970): >512 µg/mL
MIC ([1]; MRSA isolate S37938): >512 µg/mL
MIC ([1]; MRSA isolate T5683): >512 µg/mL

CC(C)C[C@H](NC(=O)[C@H](CC(C)C)NC(=O)[C@H](CCCNC(=N)N)NC(=O)[C@H](CC(C)C)NC(=O)[C@H](CC(C)C)NC(=O)[C@H](CCCCNC(=O)[C@H](CCCNC(=N)N)NC(=O)[C@H](CC(C)C)NC(=O)[C@@H](N)CCCNC(=N)N)NC(=O)[C@H](CCCNC(=N)N)NC(=O)[C@H](CC(C)C)NC(=O)[C@@H](N)CCCNC(=N)N)C(N)=O [G1RLR-L2RL2, (RLR)2KLLRLL-NH2] (H-RLRK([Arg-Leu-Arg])LLRLL-NH2)
MBC (S. aureus ATCC 29213): 16 µg/mL (≈ 9.97 µM)
MIC (S. aureus ATCC 29213): 16 µg/mL (≈ 9.97 µM)
IC50 at 24 h (in vitro): 153 µg/mL (≈ 95.3 µM)
IC50 at 24 h (MTT cytotoxicity assay): 328 µg/mL (≈ 204 µM)
MBC (P. aeruginosa ATCC 27853): 16 µg/mL (≈ 9.97 µM)
MIC (P. aeruginosa ATCC 27853): 16 µg/mL (≈ 9.97 µM)
MBC (E. coli ATCC 25822): 8 µg/mL (≈ 4.98 µM)
MIC (E. coli ATCC 25822): 8 µg/mL (≈ 4.98 µM)
MBC (E. faecium ATCC 35667): 4 µg/mL (≈ 2.49 µM)
MIC (E. faecium ATCC 35667): 4 µg/mL (≈ 2.49 µM)
MBC (B. subtilis ATCC 6051): 32 µg/mL (≈ 19.9 µM)
MIC (B. subtilis ATCC 6051): 32 µg/mL (≈ 19.9 µM)

CCCCCC(=O)N[C@@H](CCCCN)C(=O)N[C@@H](CC(C)C)C(=O)N[C@@H](CCCCN)C(=O)NCCCC[C@H](NC(=O)[C@H](CCCCN)NC(=O)[C@H](CC(C)C)NC(=O)[C@H](CCCCN)NC(=O)CCCCC)C(=O)N[C@@H](CCCCN)C(=O)N[C@@H](CC(C)C)C(=O)N[C@@H](CCCCN)C(=O)NCCCC[C@H](NC(=O)[C@H](CCCCN)NC(=O)[C@H](CC(C)C)NC(=O)[C@H](CCCCN)NC(=O)[C@H](CCCCNC(=O)[C@H](CCCCN)NC(=O)[C@H](CC(C)C)NC(=O)[C@H](CCCCN)NC(=O)CCCCC)NC(=O)[C@H](CCCCN)NC(=O)[C@H](CC(C)C)NC(=O)[C@H](CCCCN)NC(=O)CCCCC)C(=O)N[C@@H](CC(C)C)C(=O)N[C@@H](CC(C)C)C(=O)N[C@@H](CCCCN)C(=O)N[C@@H](CC(C)C)C(=O)N[C@@H](CC(C)C)C(N)=O [Hx-G2KLK-L2KL2, (Hx-KLK)4(KKLK)2KLLKLL-NH2] (I: Hexanoyl-KLKK([Lys-Leu-Lys-Hexanoyl])KLKKLLKLL-NH2 / II: Hexanoyl-KLKK([Lys-Leu-Lys-Hexanoyl])KLK; amide I:8-II:C; N-terminus assumed)
MBC (S. aureus ATCC 29213): 128 µg/mL (≈ 35.6 µM)
MIC (S. aureus ATCC 29213): 128 µg/mL (≈ 35.6 µM)
MIC [1, 2]: 64 µg/mL (≈ 17.8 µM)
MBC (P. aeruginosa ATCC 27853): 64 µg/mL (≈ 17.8 µM)
MIC (P. aeruginosa ATCC 27853): 64 µg/mL (≈ 17.8 µM)
MBC (E. coli ATCC 25822): 64 µg/mL (≈ 17.8 µM)
MIC (E. coli ATCC 25822): 64 µg/mL (≈ 17.8 µM)
MBC (E. faecium ATCC 35667): 64 µg/mL (≈ 17.8 µM)
MIC (E. faecium ATCC 35667): 32 µg/mL (≈ 8.91 µM)
MBC (B. subtilis ATCC 6051): 128 µg/mL (≈ 35.6 µM)
MIC (B. subtilis ATCC 6051): 64 µg/mL (≈ 17.8 µM)

I: H-KLKK([Lys-Leu-Lys])KLKKKLKKLLKLL-NH2 / II: H-KLKK([Lys-Leu-Lys])KLKKKLK / III: H-KLKK([Lys-Leu-Lys])KLK / IV: H-KLKK([Lys-Leu-Lys])KLK (amide I:8-IV:C, I:12-II:C, II:8-III:C) [G3KLK-L2KL2, (KLK)8(KKLK)4(KKLK)2KLLKLL-NH2]
MBC (S. aureus ATCC 29213): 16 µg/mL
MIC (S. aureus ATCC 29213): 16 µg/mL
IC50 at 24 h (in vitro): 53.9 µg/mL
IC50 at 24 h (MTT cytotoxicity assay): 25.7 µg/mL
MBC (P. aeruginosa ATCC 27853): 16 µg/mL
MIC (P. aeruginosa ATCC 27853): 16 µg/mL
MBC (E. coli ATCC 25822): 32 µg/mL
MIC (E. coli ATCC 25822): 32 µg/mL
MBC (E. faecium ATCC 35667): 64 µg/mL
MIC (E. faecium ATCC 35667): 64 µg/mL
MBC (B. subtilis ATCC 6051): 8 µg/mL
MIC (B. subtilis ATCC 6051): 4 to 8 µg/mL

CN[C@H](CC(C)C)C(=O)N[C@H]1C(=O)N[C@@H](CC(N)=O)C(=O)N[C@H]2C(=O)N[C@H]3C(=O)N[C@H](C(=O)N[C@H](C(=O)O)c4cc(O)cc(O)c4-c4cc3ccc4O)[C@H](O)c3ccc(c(Cl)c3)Oc3cc2cc(c3O[C@@H]2O[C@H](CO)[C@@H](O)[C@H](O)[C@H]2O[C@H]2C[C@](C)(N)[C@H](O)[C@H](C)O2)Oc2ccc(cc2Cl)[C@H]1O [Van, vancomycin, reference compound]
MIC ([1]; MRSA isolate B11970): 1 µg/mL (≈ 0.69 µM)
MIC ([1]; MRSA isolate B13178): 1 µg/mL (≈ 0.69 µM)
MIC ([1]; MRSA isolate P10747): 1 µg/mL (≈ 0.69 µM)
MIC ([1]; MRSA isolate P10781): 1 µg/mL (≈ 0.69 µM)
MIC ([1]; MRSA isolate P11520): 1 µg/mL (≈ 0.69 µM)
MIC ([1]; MRSA isolate S18155): 1 µg/mL (≈ 0.69 µM)
MIC ([1]; MRSA isolate S37938): 1 µg/mL (≈ 0.69 µM)
MIC ([1]; MRSA isolate T5683): 1 µg/mL (≈ 0.69 µM)
MIC ([1]; Staphylococcus aureus): 1 µg/mL (≈ 0.69 µM)
MIC ([1]; Staphylococcus aureus, MRSA): 1 µg/mL (≈ 0.69 µM)
MIC (VRE, E. faecium isolates; Enterococcus faecium): > 128 µg/mL
MIC (VRE, E. faecium isolates; Enterococcus faecium, VRE): > 128 µg/mL
MIC (VRE, E. faecium isolates; VRE E. faecium isolate 938072607): >128 µg/mL
MIC (VRE, E. faecium isolates; VRE E. faecium isolate 938600912): >128 µg/mL
MIC (VRE, E. faecium isolates; VRE E. faecium isolate 938636470): >128 µg/mL
MIC (VRE, E. faecium isolates; VRE E. faecium isolate 938666613): >128 µg/mL
MIC (VRE, E. faecium isolates; VRE E. faecium isolate 945530665): >128 µg/mL
MIC (VRE, E. faecium isolates; VRE E. faecium isolate 951208931): >128 µg/mL
MIC (VRE, E. faecium isolates; VRE E. faecium isolate 951234856): >128 µg/mL
MIC (VRE, E. faecium isolates; VRE E. faecium isolate 951245262): >128 µg/mL

CC(=O)N[C@@H](CCCCN)C(=O)N[C@@H](CC(C)C)C(=O)N[C@@H](CCCCN)C(=O)NCCCC[C@H](NC(=O)[C@H](CCCCN)NC(=O)[C@H](CC(C)C)NC(=O)[C@H](CCCCN)NC(C)=O)C(=O)N[C@@H](CCCCN)C(=O)N[C@@H](CC(C)C)C(=O)N[C@@H](CCCCN)C(=O)NCCCC[C@H](NC(=O)[C@H](CCCCN)NC(=O)[C@H](CC(C)C)NC(=O)[C@H](CCCCN)NC(=O)[C@H](CCCCNC(=O)[C@H](CCCCN)NC(=O)[C@H](CC(C)C)NC(=O)[C@H](CCCCN)NC(C)=O)NC(=O)[C@H](CCCCN)NC(=O)[C@H](CC(C)C)NC(=O)[C@H](CCCCN)NC(C)=O)C(=O)N[C@@H](CC(C)C)C(=O)N[C@@H](CC(C)C)C(=O)N[C@@H](CCCCN)C(=O)N[C@@H](CC(C)C)C(=O)N[C@@H](CC(C)C)C(N)=O [Ac-G2KLK-L2KL2, (Ac-KLK)4(KKLK)2KLLKLL-NH2] (I: Ac-KLKK([Lys-Leu-Lys-Ac])KLKKLLKLL-NH2 / II: Ac-KLKK([Lys-Leu-Lys-Ac])KLK; amide I:8-II:C)
MBC (S. aureus ATCC 29213): 128 µg/mL (≈ 38 µM)
MIC (S. aureus ATCC 29213): 64 µg/mL (≈ 19 µM)
MIC [1, 2]: 128 µg/mL (≈ 38 µM)
MBC (P. aeruginosa ATCC 27853): 16 µg/mL (≈ 4.75 µM)
MIC (P. aeruginosa ATCC 27853): 8 to 16 µg/mL
MBC (E. coli ATCC 25822): 16 µg/mL (≈ 4.75 µM)
MIC (E. coli ATCC 25822): 8 to 16 µg/mL
MBC (E. faecium ATCC 35667): 128 µg/mL (≈ 38 µM)
MIC (E. faecium ATCC 35667): 64 µg/mL (≈ 19 µM)
MBC (B. subtilis ATCC 6051): 16 µg/mL (≈ 4.75 µM)
MIC (B. subtilis ATCC 6051): 8 to 16 µg/mL

CCCCCCCCCCCC(=O)N[C@@H](CCCCN)C(=O)N[C@@H](CC(C)C)C(=O)N[C@@H](CCCCN)C(=O)NCCCC[C@H](NC(=O)[C@H](CCCCN)NC(=O)[C@H](CC(C)C)NC(=O)[C@H](CCCCN)NC(=O)CCCCCCCCCCC)C(=O)N[C@@H](CCCCN)C(=O)N[C@@H](CC(C)C)C(=O)N[C@@H](CCCCN)C(=O)NCCCC[C@H](NC(=O)[C@H](CCCCN)NC(=O)[C@H](CC(C)C)NC(=O)[C@H](CCCCN)NC(=O)[C@H](CCCCNC(=O)[C@H](CCCCN)NC(=O)[C@H](CC(C)C)NC(=O)[C@H](CCCCN)NC(=O)CCCCCCCCCCC)NC(=O)[C@H](CCCCN)NC(=O)[C@H](CC(C)C)NC(=O)[C@H](CCCCN)NC(=O)CCCCCCCCCCC)C(=O)N[C@@H](CC(C)C)C(=O)N[C@@H](CC(C)C)C(=O)N[C@@H](CCCCN)C(=O)N[C@@H](CC(C)C)C(=O)N[C@@H](CC(C)C)C(N)=O [Dd-G2KLK-L2KL2, (Dd-KLK)4(KKLK)2KLLKLL-NH2] (I: Lauroyl-KLKK([Lys-Leu-Lys-Lauroyl])KLKKLLKLL-NH2 / II: Lauroyl-KLKK([Lys-Leu-Lys-Lauroyl])KLK; amide I:8-II:C; N-terminus assumed)
MIC (S. aureus ATCC 29213): >128 µg/mL
MIC (P. aeruginosa ATCC 27853): >128 µg/mL
MIC (E. coli ATCC 25822): >128 µg/mL
MIC (E. faecium ATCC 35667): >128 µg/mL
MIC (B. subtilis ATCC 6051): >128 µg/mL
